These results are taken from ChEMBL document CHEMBL1201862, “PubChem BioAssay data set” (2004).

Some test systems named below: KM12; UACC-62; A549; COLO 205; UO-31; 786-0; HOP-62; K562; IGROV-1; SN12C; SF-295; CCRF-CEM; NCI/ADR-RES; NCI-H460; OVCAR-8; OVCAR-4; EKVX; Malme-3M; T47D; LXFL 529.
Assay in all cases: NCI-60 cell line screen, 48 h

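Cells were grown in 96-well plates and exposed to each compound for 48 hours at five concentrations; endpoints were interpolated linearly between bracketing concentrations, or set to the highest concentration if not reached. The concentration for 50% growth inhibition is given as GI50.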 Active and inactive are the calls of the source. Rule as the data show it: active = GI50 up to about 1.1 µM and inactive = higher.

Consider `CC(C)(C)CN1[C@@H]2CCCC[C@H]2N(CC(C)(C)C)P1(=O)Cc1ccccc1`, for which the GI50 in the assay with KM12 was 13.1 µM (inactive); with UACC-62 it was 10.7 µM (inactive); with A549, 11.6 µM (inactive); in the assay with COLO 205 it was 10.4 µM (inactive); in the assay on UO-31, 13.3 µM (inactive); in the assay with 786-0 it was 15.6 µM (inactive). Also, the GI50 with HOP-62 was 16.4 µM (inactive); in the assay on K562, 13.6 µM (inactive); in the assay on IGROV-1 it was 11 µM (inactive); in the assay with SN12C, 16.3 µM (inactive); with SF-295 it was 10.4 µM (inactive); in the assay with CCRF-CEM, 11 µM (inactive). For the same compound, the GI50 in the assay on NCI/ADR-RES was 12.1 µM (inactive); with NCI-H460, 13.2 µM (inactive); with OVCAR-8, 14.4 µM (inactive); in the assay with OVCAR-4 it was 10.4 µM (inactive); with EKVX, 14.3 µM (inactive); with Malme-3M it was 13.5 µM (inactive). The GI50 with T47D is 10.1 µM (inactive).

On to `CCOC(=O)Cn1nnc2ccc(Nc3nc4ccccc4nc3C(=O)OCC)cc21`, for which the GI50 in the assay with KM12 is > 100 µM (inactive); in the assay on UACC-62 it was 65.3 µM (inactive); with A549 it was > 100 µM (inactive); in the assay with COLO 205, > 100 µM (inactive); in the assay on UO-31, 30.1 µM (inactive); with 786-0, 89.3 µM (inactive). For the same compound, the GI50 in the assay on HOP-62 was 38.3 µM (inactive); in the assay with K562 it was > 100 µM (inactive); with IGROV-1, > 100 µM (inactive); in the assay with SN12C it was > 100 µM (inactive); in the assay with SF-295, 34.7 µM (inactive); in the assay with CCRF-CEM, > 100 µM (inactive). The GI50 in the assay with NCI/ADR-RES, in the assay on NCI-H460, in the assay on OVCAR-8, with OVCAR-4, in the assay on EKVX and in the assay with Malme-3M was > 100 µM (inactive) throughout. The GI50 with T47D was > 100 µM (inactive).

`CC1=C2c3ccccc3N(S(=O)(=O)c3ccccc3)[C@H]2[C@H](C(=O)N2C3CC4CC[C@@]3(CS2(=O)=O)C4(C)C)CC1` (some centres undefined): the GI50 in the assay on KM12 is 49.5 µM (inactive); with UACC-62, 9.55 µM (inactive); with A549 it was 35.3 µM (inactive); in the assay on COLO 205 it was 47.9 µM (inactive); in the assay with UO-31, 9.06 µM (inactive); with 786-0, 0.41 µM (active). Also, the GI50 in the assay on HOP-62 was 16.4 µM (inactive); with K562, 7.24 µM (inactive); in the assay on IGROV-1, 59.4 µM (inactive); in the assay on SN12C it was 39.1 µM (inactive); in the assay on SF-295 it was 1.71 µM (inactive); in the assay with CCRF-CEM, 35.3 µM (inactive). The GI50 is 35.9 µM (inactive) in the assay with NCI/ADR-RES; 5.48 µM (inactive) with NCI-H460; 21.6 µM (inactive) in the assay with OVCAR-8; 64 µM (inactive) in the assay on OVCAR-4; 56.6 µM (inactive) in the assay with EKVX; 28.9 µM (inactive) in the assay on Malme-3M. Besides, the GI50 in the assay with T47D was 10.6 µM (inactive).

As for `COCN1C(=O)C2CC(/C=C/C(N)=O)=CN2C(=O)c2ccccc21` (centres undefined), the GI50 with KM12, in the assay with UACC-62, with A549, in the assay on LXFL 529, with COLO 205 and with 786-0 was > 100 µM (inactive) each time. Further, the GI50 in the assay on HOP-62, with K562, in the assay on IGROV-1, in the assay with SN12C, in the assay with SF-295 and in the assay on CCRF-CEM was > 100 µM (inactive) each time. The GI50 in the assay with NCI-H460, in the assay on OVCAR-8, in the assay on OVCAR-4 and with EKVX was > 100 µM (inactive) in each case.

For the compound `O=C(O)c1ccccc1/C=C1\Cc2cc3c(cc2C1=O)CCC3`, the GI50 with KM12 was 19.2 µM (inactive); in the assay on UACC-62, 16.9 µM (inactive); with A549, 30.1 µM (inactive); in the assay with COLO 205, 21.9 µM (inactive); with UO-31 it was 33.9 µM (inactive); in the assay on 786-0 it was 29 µM (inactive). Further, the GI50 is 25.3 µM (inactive) in the assay on HOP-62; 17.1 µM (inactive) in the assay on K562; 23.6 µM (inactive) in the assay on IGROV-1; 20.4 µM (inactive) in the assay with SN12C; 24 µM (inactive) in the assay on SF-295; 18.8 µM (inactive) with CCRF-CEM. Moreover, the GI50 is 17.3 µM (inactive) in the assay with NCI/ADR-RES; 24.2 µM (inactive) in the assay with NCI-H460; 26.3 µM (inactive) with OVCAR-8; 28.1 µM (inactive) in the assay on OVCAR-4; 32.1 µM (inactive) in the assay with EKVX; 26.9 µM (inactive) in the assay with Malme-3M. Further, in the assay with T47D, the GI50 was 9.23 µM (inactive).

As for `COc1ccc(/N=C2\C(=O)C3=C(OC(C)(C)CC3)c3ccccc32)cc1`, the GI50 in the assay with KM12 is 0.968 µM (active); in the assay with UACC-62 it was 0.94 µM (active); with A549, 0.946 µM (active); in the assay on COLO 205, 2.93 µM (inactive); with UO-31, 0.755 µM (active); with 786-0, 0.971 µM (active). The GI50 in the assay with HOP-62 is 0.91 µM (active); in the assay on K562 it was 0.612 µM (active); with IGROV-1, 1.36 µM (inactive); in the assay with SN12C, 0.889 µM (active); in the assay with SF-295, 0.863 µM (active); with CCRF-CEM, 1.48 µM (inactive). In addition, the GI50 with NCI/ADR-RES is 0.802 µM (active); in the assay on NCI-H460 it was 1.5 µM (inactive); with OVCAR-8, 0.43 µM (active); in the assay on OVCAR-4 it was 0.773 µM (active); with EKVX, 0.993 µM (active); with Malme-3M, 0.791 µM (active). The GI50 in the assay on T47D is 0.839 µM (active).

`O=C(CCc1cc(O)ccc1O)OCCc1ccccc1`: the GI50 in the assay on KM12 is 8.53 µM (inactive); with UACC-62 it was 12.4 µM (inactive); with A549, > 100 µM (inactive); with COLO 205, 14.2 µM (inactive); in the assay with UO-31, 4.6 µM (inactive); with 786-0 it was 9.53 µM (inactive). The GI50 with HOP-62 was 36.1 µM (inactive); in the assay with K562, 1.4 µM (inactive); in the assay on IGROV-1, 12.7 µM (inactive); in the assay with SN12C it was 16.8 µM (inactive); in the assay with SF-295, 37.5 µM (inactive); with CCRF-CEM, 0.313 µM (active). Moreover, the GI50 with NCI/ADR-RES is 19.1 µM (inactive); with NCI-H460, 44.8 µM (inactive); in the assay on OVCAR-8 it was 12.7 µM (inactive); in the assay on OVCAR-4 it was 1.49 µM (inactive); with EKVX, 16.6 µM (inactive); in the assay with Malme-3M, 12.6 µM (inactive). For the same compound, in the assay on T47D, the GI50 is 16.4 µM (inactive).

For `O=C(/C=C/c1cc2ccccc2o1)N1CCN(c2ccccn2)CC1`, the GI50 in the assay with KM12 is 87.5 µM (inactive); in the assay on UACC-62, 86.7 µM (inactive); in the assay on A549 it was > 100 µM (inactive); with COLO 205 it was 85.7 µM (inactive); in the assay on UO-31, 40.9 µM (inactive); with 786-0, > 100 µM (inactive). In addition, the GI50 was 97.9 µM (inactive) in the assay on HOP-62; > 100 µM (inactive) with K562; 84.1 µM (inactive) in the assay with IGROV-1; > 100 µM (inactive) with SN12C; > 100 µM (inactive) in the assay on SF-295; > 100 µM (inactive) in the assay with CCRF-CEM. For the same compound, the GI50 in the assay with NCI/ADR-RES is 60.7 µM (inactive); in the assay on NCI-H460, 91.6 µM (inactive); in the assay on OVCAR-8 it was > 100 µM (inactive); with OVCAR-4, 49.8 µM (inactive); in the assay with EKVX it was 95.5 µM (inactive); in the assay with Malme-3M, 79.6 µM (inactive). Moreover, in the assay with T47D, the GI50 is 44.3 µM (inactive).
